The results in this text go back to ChEMBL document CHEMBL1144462, “Spread in an Italian hospital of a clonal Acinetobacter baumannii strain producing the TEM-92 extended-spectrum beta-lactamase” (2007).

Where only a bound is given, the exact number is not on record here.

Experiment [1] concerns Acinetobacter baumannii. The experiment in a line: Antibacterial activity against TEM92 ESBL-producing Acinetobacter baumannii by CLSI method. The experiment is classed as functional.
The subject of experiment [2] is Acinetobacter baumannii. Description: Antibacterial activity against Acinetobacter baumannii by CLSI method. Type of experiment: functional.

By MIC is commonly meant the smallest concentration in the dilution series that meets the test's criterion for growth inhibition. High values mean a less susceptible organism, low ones a more susceptible organism. As to `NCC[C@H](O)C(=O)N[C@@H]1C[C@H](N)[C@@H](O[C@H]2O[C@H](CN)[C@@H](O)[C@H](O)[C@H]2O)[C@H](O)[C@H]1O[C@H]1O[C@H](CO)[C@@H](O)[C@H](N)[C@H]1O` [AMIKACIN], the MIC in the experiment on Acinetobacter baumannii [1] is at most 8 µg/mL.
In the case of `CO/N=C(\C(=O)N[C@@H]1C(=O)N2C(C(=O)O)=C(COC(C)=O)CS[C@H]12)c1csc(N)n1` [CEFOTAXIME], the MIC was at least 16 µg/mL against Acinetobacter baumannii [2] and over 128 µg/mL with Acinetobacter baumannii [1].
The like results for `CC(C)(O/N=C(\C(=O)N[C@@H]1C(=O)N2C(C(=O)[O-])=C(C[n+]3ccccc3)CS[C@H]12)c1csc(N)n1)C(=O)O` [CEFTAZIDIME] were, in that order, at least 16 µg/mL and over 128 µg/mL.
In the experiment with Acinetobacter baumannii [1], `CO/N=C(\C(=O)N[C@@H]1C(=O)N2C(C(=O)O)=C(CSc3nc(=O)c(O)nn3C)CS[C@H]12)c1csc(N)n1` [CEFTRIAXONE] gave a minimal inhibitory concentration (MIC) of over 128 µg/mL.
On to `C[C@@H](O)[C@H]1C(=O)N2C(C(=O)O)=C(SCCNC=N)C[C@H]12` [IMIPENEM ANHYDROUS], for which the MIC was at least 8 µg/mL in the experiment with Acinetobacter baumannii [2] and at most 1 µg/mL against Acinetobacter baumannii [1].
For `C[C@H]1COc2c(N3CCN(C)CC3)c(F)cc3c(=O)c(C(=O)O)cn1c23.C[C@H]1COc2c(N3CCN(C)CC3)c(F)cc3c(=O)c(C(=O)O)cn1c23.O` [LEVOFLOXACIN], the MIC against Acinetobacter baumannii [1] was over 32 µg/mL.
`C[C@@H](O)[C@H]1C(=O)N2C(C(=O)O)=C(S[C@@H]3CN[C@H](C(=O)N(C)C)C3)[C@H](C)[C@H]12` [MEROPENEM] returned an MIC against Acinetobacter baumannii [1] of at most 2 µg/mL.
On the same count and under the same terms, the figure for `CCN1CCN(C(=O)N[C@@H](C(=O)N[C@@H]2C(=O)N3[C@@H]2SC(C)(C)[C@@H]3C(=O)O)c2ccccc2)C(=O)C1=O` [PIPERACILLIN] is over 128 µg/mL; for `NC[C@H]1O[C@H](O[C@H]2[C@H](O)[C@@H](O[C@H]3O[C@H](CO)[C@@H](O)[C@H](N)[C@H]3O)[C@H](N)C[C@@H]2N)[C@H](N)C[C@@H]1O` [TOBRAMYCIN] it is over 32 µg/mL.
On the same count and under the same terms, for GENTAMICIN the value was over 128 µg/mL.
